Measurements taken from patent publication US20250197864A1, “LNCRNA TRANSCRIPTS IN MELANOMAGENESIS” (The Regents of the University of California, priority 2021, published 2025).

System: gene expression in D04 melanoma cells
Assay: RNA-Seq differential expression analysis (DESeq2)
Type: cell-based, human
Details: up-regulated list
Experimental: Total RNA was isolated using the RNeasy mini Kit (QIAGEN) following the manufacturer's protocol. Quality check for extracted RNA was done using 2100 Bioanalyzer (Agilent Technologies, USA) or Tapestation System (Agilent Technologies, USA). […] For samples used for identification of MAPK-responsive lncRNAs, paired-end, 101-bp sequencing was performed by Centrillion Genomic Services (Centrillion Biosciences, USA) on an Illumina HiSeq 2000. For DE gene analysis of ASO-transfected D04 samples, paired-end, 2×150-bp sequencing was performed by Genewiz (USA) on a Illumina HiSeq.
Sequence reads were aligned to the human genome (hg19) using TopHat (Version 2.0.11).
Differential expression (DE) analysis was done using DESeq2. Differentially expressed genes were defined by more than 1.5-fold changes (log 2 >0.58 or <−0.58) in expression with FDR<0.05. GO term analysis was done using DAVID Functional Annotation Clustering analysis.
To examine the biomolecular changes upon TRASH-inhibition in melanoma, D04 cells were treated with TRASH-ASOs (SEQ ID NO:15) and Control-ASOs and RNA was extracted and used for RNA-Seq. […] These GO terms consisted of genes encoding growth factors, tyrosine kinases, G protein coupled receptor subunits, and collagen subunits. Scatter plot diagram showing differential gene expression after TRASH-ASO treatment compared to Control-ASO treatment. (cut-off for significance was adjusted p-value <0.05). Data was obtained from RNA-Seq of D04 melanoma cells, treatment period was three days. (FIG. 5c)

## GACTGGAGATAATTAA (gapmer, pattern not given here) [SEQ ID NO: 15, GapmeR ASO targeting AC004540.4 (TRASH), exon region of both isoforms; used for in vitro experiments]
ENSG00000144655
  log2FoldChange CSRNP1: 0.6637
ENSG00000144821
  log2FoldChange MYH15: 1.163
ENSG00000144824
  log2FoldChange PHLDB2: 0.8277
ENSG00000145088
  log2FoldChange EAF2: 0.8471
ENSG00000145194
  log2FoldChange ECE2: 0.8019
ENSG00000145358
  log2FoldChange DDIT4L: 0.9547
ENSG00000145990
  log2FoldChange GFOD1: 0.6187
ENSG00000146054
  log2FoldChange TRIM7: 0.7787
ENSG00000146281
  log2FoldChange PM20D2: 0.6289
ENSG00000146648
  log2FoldChange EGFR: 0.8305
ENSG00000147174
  log2FoldChange GCNA: 0.8797
ENSG00000147676
  log2FoldChange MAL2: 0.6498
ENSG00000148908
  log2FoldChange RGS10: 0.5971
ENSG00000149418
  log2FoldChange ST14: 1.17
ENSG00000150593
  log2FoldChange PDCD4: 0.586
ENSG00000150782
  log2FoldChange IL18: 0.6212
ENSG00000151014
  log2FoldChange NOCT: 0.6791
ENSG00000152409
  log2FoldChange JMY: 0.9323
ENSG00000153234
  log2FoldChange NR4A2: 0.7664
ENSG00000153237
  log2FoldChange CCDC148: 0.745
ENSG00000154319
  log2FoldChange FAM167A: 0.6771
ENSG00000154589
  log2FoldChange LY96: 0.6345
ENSG00000156510
  log2FoldChange HKDC1: 0.717
ENSG00000156535
  log2FoldChange CD109: 0.6418
ENSG00000157168
  log2FoldChange NRG1: 0.8358
ENSG00000158023
  log2FoldChange WDR66: 1.174
ENSG00000158109
  log2FoldChange TPRG1L: 0.6032
ENSG00000158125
  log2FoldChange XDH: 0.6451
ENSG00000158555
  log2FoldChange GDPD5: 0.6005
ENSG00000159166
  log2FoldChange LAD1: 1.038
ENSG00000159167
  log2FoldChange STC1: 0.8653
ENSG00000162413
  log2FoldChange KLHL21: 0.8059
ENSG00000162458
  log2FoldChange FBLIM1: 0.7967
ENSG00000162772
  log2FoldChange ATF3: 0.6827
ENSG00000163050
  log2FoldChange COQ8A: 0.9489
ENSG00000163254
  log2FoldChange CRYGC: 1.014
ENSG00000163291
  log2FoldChange PAQR3: 0.7134
ENSG00000163376
  log2FoldChange KBTBD8: 1.017
ENSG00000163395
  log2FoldChange IGFN1: 1.134
ENSG00000163623
  log2FoldChange NKX6-1: 1.147
ENSG00000163803
  log2FoldChange PLB1: 0.8869
ENSG00000163818
  log2FoldChange LZTFL1: 0.6384
ENSG00000164520
  log2FoldChange RAET1E: 1.147
ENSG00000164535
  log2FoldChange DAGLB: 0.608
ENSG00000164604
  log2FoldChange GPR85: 0.7923
ENSG00000164744
  log2FoldChange SUN3: 0.9518
ENSG00000164778
  log2FoldChange EN2: 1.028
ENSG00000165879
  log2FoldChange FRAT1: 0.9146
ENSG00000166073
  log2FoldChange GPR176: 0.7841
ENSG00000166111
  log2FoldChange SVOP: 1.178
ENSG00000166246
  log2FoldChange C16orf71: 0.7026
ENSG00000166455
  log2FoldChange C16orf46: 0.9764
ENSG00000166923
  log2FoldChange GREM1: 1.047
ENSG00000167286
  log2FoldChange CD3D: 0.767
ENSG00000167601
  log2FoldChange AXL: 0.7701
ENSG00000167646
  log2FoldChange DNAAF3: 0.6547
ENSG00000167711
  log2FoldChange SERPINF2: 1.036
ENSG00000167767
  log2FoldChange KRT80: 0.6697
ENSG00000167972
  log2FoldChange ABCA3: 0.8489
ENSG00000168497
  log2FoldChange CAVIN2: 1.053
ENSG00000168811
  log2FoldChange IL12A: 0.635
ENSG00000169085
  log2FoldChange C8orf46: 0.7557
ENSG00000169271
  log2FoldChange HSPB3: 0.6385
ENSG00000169548
  log2FoldChange ZNF280A: 0.9372
ENSG00000169715
  log2FoldChange MT1E: 0.8998
ENSG00000170476
  log2FoldChange MZB1: 1.158
ENSG00000170989
  log2FoldChange S1PR1: 0.6805
ENSG00000171402
  log2FoldChange XAGE3: 0.6996
ENSG00000171970
  log2FoldChange ZNF57: 0.6499
ENSG00000172548
  log2FoldChange NIPAL4: 1.166
ENSG00000173702
  log2FoldChange MUC13: 1.042
ENSG00000174567
  log2FoldChange GOLT1A: 0.9754
ENSG00000175573
  log2FoldChange C11orf68: 0.673
ENSG00000175894
  log2FoldChange TSPEAR: 0.9662
ENSG00000176177
  log2FoldChange ENTHD1: 0.5983
ENSG00000176723
  log2FoldChange ZNF843: 0.9407
ENSG00000177181
  log2FoldChange RIMKLA: 0.711
ENSG00000177606
  log2FoldChange JUN: 0.715
ENSG00000177873
  log2FoldChange ZNF619: 0.5884
ENSG00000178150
  log2FoldChange ZNF114: 0.8507
ENSG00000178695
  log2FoldChange KCTD12: 0.7298
ENSG00000179431
  log2FoldChange FJX1: 0.6535
ENSG00000179598
  log2FoldChange PLD6: 0.696
ENSG00000179698
  log2FoldChange WDR97: 0.7195
ENSG00000179913
  log2FoldChange B3GNT3: 0.7904
ENSG00000180071
  log2FoldChange ANKRD18A: 0.7649
ENSG00000180914
  log2FoldChange OXTR: 1.093
